From patent publication US6613875B1, “Cyclic peptide tube” (The Scripps Research Institute, priority 1993, dated 2003)
Square brackets hold non-standard residues; d marks the D form.

Key:
[1] = Channel-mediated glucose efflux from glucose entrapped unilamellar vesicles, enzyme coupled NADPH assay; assay type: biochemical; settings: for apparent rate constant of glucose transport: 27° C.
Excerpt: FIG. 28 illustrates a schematic illustration of channel-mediated glucose transport and the enzyme coupled assay used to monitor the transport activity with respect to the channel structure indicated in FIGS. 27A-B. Formation of a transmembrane pore structure(s) initiates glucose efflux from the liposome which can be directly monitored by measuring the rate of NADPH production. The enzymes and cofactors employed are hydrophilic and thus can not pass through the lipid membrane and are too large to penetrate the channel structure. Therefore, only the released glucose can undergo the enzymatic reaction.
FIG. 29 illustrates the ensuing glucose efflux on the addition of various amounts of the channel forming peptide of FIGS. 27A-B, viz., open circles represent 15.0×10^−6 M; closed circles represent 11.0×10^−6 M; open triangles represent 7.5×10^−6 M; closed triangles represent 5.6×10^−6 M; and open diamonds represent 3.8×10^−6 M. Efflux is expressed in terms of the amount of glucose released as a function of time (sampled at 90 sec intervals). The large unilamellar vesicles used in this study contained 200 mM D-glucose. All curves are background corrected to remove any contribution from the nonspecific glucose leakage from the liposomes.
Glucose transport activity was studied in isotonic solutions using glucose entrapped unilamellar lipid vesicles. Unilamellar vesicles, ˜150 nm in diameter, were prepared by the reverse-phase evaporation method using 1,2-dipalmitoyl-Sn-glycero-3-phosphatidylcholine (DPPC) 1-palmitoyl-2-oleoyl-Sn-glycero-3-phosphatidylcholine (POPC) 1-palmitoyl-2-oleoyl-Sn-glycero-3-phosphatidylserine (POPS), and cholesterol in the ratio 1:1:0.1:1 in a solution containing 50, 100, 150, or 200 mM D-glucose, 100 mM NaCl, and 50 mM Tris buffer pH 7.5, according to the method of F. Szoka et al. in Proc. Natl. Acad. Sci. USA (1978), vol. 75, pages 4194-4198. Liposomes were gel-filtered using Sephadex G-25 in an isotonic buffer containing 50, 100, 150, or 200 mM sucrose, 100 mM NaCl, and 50 mM Tris buffer pH 7.5. The liposome preparation was stored at 4° C. and used within 24 hours of the synthesis. The transport phenomenon was monitored spectrophotometrically at 340 nm for the production of NADPH using an enzyme coupled assay (FIG. 28), according to the method of S. C. Kinsky in Methods in Enzymology; Fleischer, S., Packer, L., Eds; Academic Press: London, 1974; vol. 32, pp 501-513. All experiments were performed on a Spectronic-3000 photodiode-array spectrophotometer using 3 ml quartz cuvettes placed in the thermojacketed multiple cell holder and held at 27° C. In a typical experiment the following solutions were sequentially placed in the cuvettes: 750 ml of buffer (300 mM NaCl, 50 mM Tris pH 7.5, 3.5 mM MgCl2, and 0.15 mM CaCl2), 500 ml of the enzyme solution (8 units.ml^−1 of hexokinase, 16 units.ml^−1 of glucose-6-phosphate dehydrogenase, 2.5 mM ATP, 1.3 mM NADP all dissolved in 200 mM NaCl, 50 mM Tris pH 7.5, 3.5 mM MgCl2, and 0.15 mM CaCl2), and 75 ml of the stock liposome solution^8 (2.6×10^−3 M in phospholipids). Total glucose content in each cuvette was determined by Triton X-100 treatment. Transport was initiated by the addition of an appropriate amount (5, 7.5, 10, 15, or 20 ml) of the peptide solution (1 mM in DMF) to the reference and the sample cuvettes (hexokinase was omitted from the reference sample). […] The production of NADPH was monitored at 340 nm for 1.5 h at 90 second time intervals. […]

[2] = Incorporation of peptide subunit into lipid bilayers of large unilamellar vesicles (absorption and fluorescence spectroscopy); assay type: physicochemical; settings: aqueous liposomal suspensions
Excerpt: Incorporation of the peptide subunit into lipid bilayers using large unilamellar vesicles has been established by absorption and fluorescence spectroscopy. Formation of the hydrogen-bonded transmembrane channel structure in phosphatidylcholin liposomes has been supported by FT-IR spectroscopy (FIG. 24). The observed amide-I band at 1624 cm^−1 is not only similar to the carbonyl stretching frequencies found in other nanotube structures disclosed herein, but is also consistent with the infrared spectrum of gramicidin A in similar lipid bilayers. (E. Nabedryk et al in Biophys. J. (1982), vol. 38, pages 243-249. Furthermore, the observed N-H stretching frequency at 3272 cm^−1 strongly supports the formation of a tight network of hydrogen bonds with an average intersubunit distance of 4.7 Å.
The second control peptide cyclo[-(^MeN-D-Ala-Phe)4-] which has the desirable hydrophobic surface characteristics but lacks the propensity for participating in extended hydrogen bonding network, was also designed and tested for ion transport activity. The peptide design incorporates a novel N-methylation strategy on one face of the ring structure which predisposes the subunit toward a dimeric cylindrical structure (Ghadiri, M. R., Kobayashi, K., Granja, J. R., Chadha, R., and McRee, D. E. manuscript in preparation). Such a dimeric cylindrical ensemble is approximately 10 Å thick and can not span the lipid bilayer.
The ten-residue peptide subunit employed in the present study, cyclo[-Gln-(D-Leu-Trp)4-D-Leu-], is made up of largely tryptophan and leucine residues to favor its partitioning into and self-assembly in lipid bilayers. It was synthesized on solid support^5 and characterized by ^1H NMR spectroscopy and mass spectrometry. […] This has been supported by absorption and fluorescence spectrophotometry and gel permeation studies. Formation of a hydrogen bonded transmembrane channel structure in phosphatidylcholin liposomes has been established by FT-IR spectroscopy^6. […]

Substance | display any glucose transport activity under similar assay conditions ([1]; sentence reads 'neither ... nor ... display any glucose transport activity' = none) | partitioning / incorporation into lipid bilayers [2] | apparent rate constant of glucose transport ([1]; liposomes with initial glucose concentration 50 mM) | apparent rate constant of glucose transport ([1]; liposomes with initial glucose concentration 100 mM) | apparent rate constant of glucose transport ([1]; liposomes with initial glucose concentration 150 mM) | apparent rate constant of glucose transport ([1]; liposomes with initial glucose concentration 200 mM)
cyclo[-(Trp-D-Leu)3-Gln-D-Leu-] (cyclo(W[dL]W[dL]W[dL]Q[dL]); SMILES CC(C)C[C@H]1NC(=O)[C@H](CCC(N)=O)NC(=O)[C@@H](CC(C)C)NC(=O)[C@H](Cc2c[nH]c3ccccc23)NC(=O)[C@@H](CC(C)C)NC(=O)[C@H](Cc2c[nH]c3ccccc23)NC(=O)[C@@H](CC(C)C)NC(=O)[C@H](Cc2c[nH]c3ccccc23)NC1=O) [eight residue ion channel forming cyclic peptide, approximately 7.5 Å pore] | nor | rapid partitioning |  |  |  | 
cyclo[-Gln-(D-Leu-Trp)4-D-Leu-] (cyclo(Q[dL]W[dL]W[dL]W[dL]W[dL]); SMILES CC(C)C[C@H]1NC(=O)[C@H](CCC(N)=O)NC(=O)[C@@H](CC(C)C)NC(=O)[C@H](Cc2c[nH]c3ccccc23)NC(=O)[C@@H](CC(C)C)NC(=O)[C@H](Cc2c[nH]c3ccccc23)NC(=O)[C@@H](CC(C)C)NC(=O)[C@H](Cc2c[nH]c3ccccc23)NC(=O)[C@@H](CC(C)C)NC(=O)[C@H](Cc2c[nH]c3ccccc23)NC1=O) [10-residue cyclic peptide forming 10 Å pores that transport glucose] |  | rapid incorporation | 0.18±0.02 mol(glucose)/mol(peptide)/min^−1 | 0.48±0.05 mol(glucose)/mol(peptide)/min^−1 | 0.74±0.1 mol(glucose)/mol(peptide)/min^−1 | 1.2±0.09 mol(glucose)/mol(peptide)/min^−1
